Assay results published in patent US20250262167A1, “COMPOUNDS, TARGETS AND PATHWAYS FOR MACROPHAGE MODULATION” (Massachusetts Institute of Technology, priority 2020, published 2025).
Structures can show the parent of a compound that is named as a salt.

System: human monocyte-derived macrophages (hMDMs)
Test: High throughput phenotypic screen of macrophage activation (cell shape, Z-score);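 further: phalloidin and DAPI stained hMDMs imaged by high-content microscopy, cell eccentricity compared with DMSO control by T-test, round morphology scored negative, elongated positive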
Assay type: cell-based
Design: key to Average Z-value: Z-score vs DMSO; negative = round cells, positive = elongated
Conditions: for activation state induced in the screen: compounds regulating actin-cytoskeleton
[1] = cell shape Z-score of hMDMs averaged over the compounds listed for the Wiki pathway, compounds at 20 µM for 24 hours, positive values = M2-like
[2] = cell shape Z-score of hMDMs treated with compound at 20 µM for 24 hours, averaged over the compounds listed for the WikiPathways pathway, negative = M1-like, positive = M2-like
[3] = average cell-shape Z-score of the listed compounds whose targets fall in the Wiki pathway, hMDMs, 20 µM, 24 hours, M1-activating compounds (negative Z)

Experimental: The Z-score was calculated by T-test to measure the difference of cell morphology between treatment and control. Stimuli had negative Z-scores when induced cells to round morphology and positive scores when induced cells to elongated morphology. […] Equally mixed human monocytes isolated from fresh blood of 4 healthy donors were cultured in vitro with 50 ng/mL M-CSF for 7 days. hMDMs were trypsinized and plated on 384-well plates (5000 cells/well in 50 μL). Cells were recovered in 10 ng/mL M-CSF for 16 hrs and then treated with compounds for 24 hrs. Cells were washed, fixed and stained with Phalloidin and DAPI. The plates were scanned with a high-content microscope with six-fields per well to quantify the cell number and cell morphology. […] The cell eccentricity was calculated to measure the cell morphology. The Z-score was calculated by T-test to measure the difference in cell morphologies between each compound and DMSO control.
Cells were treated with a library of over 4000 individual compounds or drugs at the final concentration of 20 μM using the CyBi-Well simultaneous pipettor (CyBio). […] After 24 hr incubation, supernatants were removed using the microplate washer (Bioteck) and cells were fixed by adding 50 μL 16% paraformaldehyde (Thermo Scientific) with the dispenser for 20 minutes. Cells were then washed with 50 μL 1×PBS twice and incubated for 20 minutes with NucBlue and AF746 Phalloidin (Invitrogen) to stain nucleus and cytoskeleton. Cells were then washed with 50 μL 1×PBS twice and maintained in PBS for the image acquirement. Plates were read in the Opera Phenix high content screening system (PerkinElmer) to photograph cells using 20× objective in 2 fluorescent channels (Blue and FarRed). A total of 6 different fields in each well and an average of 1,000 cells were imaged per well. CellProfiler was used to identify each cell by overlapping signals from its nucleus and cytoskeleton, and calculate the eccentricity as the parameter to measure the cell morphology. The Z-score was calculated by T-test to measure the difference of cell morphology between each treatment and control. For each row of the 384-well plate, total 4 wells with first and last two columns treated with the same concentration of DMSO were combined as the control for the other 20 treatment wells in that row. In the meantime, classic M1 and M2 stimuli were added to generate the gold-standard Z-score cutoffs with M1 or M2 activation. Classic M1 stimuli include LPS (100 ng/mL), IFNγ (50 ng/mL, Peprotech), TNFα (50 ng/mL, Peprotech), or IFNγ plus TNFα. Classic M2 stimuli include IL-10 (10 ng/mL, Peprotech), IL-4 (10 ng/mL, Peprotech), or IL-13 (5 ng/mL, Peprotech).

Compound | Average Z-value [1] | Average Z-value [2] | further results
Cl.Cl.O=S(=O)(NCCNC/C=C/c1ccc(Br)cc1)c1cccc2cnccc12 [H 89 dihydrochloride] | 7.14 | – | –
c1cc(-c2cnn3cc(-c4ccc(OCCN5CCCCC5)cc4)cnc23)ccn1 [Dorsomorphin dihydrochloride] | 11.09 | – | –
C=C1[C@@H](C)[C@H]2[C@H](Cc3ccccc3)NC(=O)[C@]23OC(=O)/C=C/[C@H](O)CCC[C@@H](C)C/C=C/[C@H]3[C@@H]1O [cytochalasin B] | – | −20.00 | –
CC1=C(/C=C/C(C)=C/C=C/C(C)=C/C(=O)O)C(C)(C)CCC1 [Retinoic acid] | 6.86 | – | –
Cc1nc(Nc2[nH]nc3c2CN(C(=O)N[C@H](CN(C)C)c2ccccc2)C3(C)C)c2sccc2n1 [PF-3758309] | – | −4.29 | –
Cc1c[nH]c(-c2cnc(NCCNc3ccc(C#N)cn3)nc2-c2ccc(Cl)cc2Cl)n1 [CHIR-99021] | – | −4.52 | –
YK 4-279 | – | −7.60 | –
COc1cc(C(=O)N2CCC(N3CCN(C)CC3)CC2)ccc1Nc1ncc2c(n1)N(C)c1ccccc1C(=O)N2C [LRRK2-IN-1] | 8.88 | – | –
C=C1[C@@H](C)[C@H]2[C@H](Cc3ccccc3)NC(=O)[C@]23OC(=O)/C=C/[C@H](O)CCC[C@@H](C)C/C=C/[C@H]3[C@@H]1O [cytochalasin-B] | – | – | activation state induced in the screen: M1-activating
CCCS(=O)(=O)Nc1ccc(F)c(C(=O)c2c[nH]c3ncc(-c4ccc(Cl)cc4)cc23)c1F [Vemurafenib] | – | −8.55 | –
(−)-Epigallocatechin Gallate | 7.36 | – | –
CN(C)CCC=C1c2ccccc2COc2ccccc21 [Doxepine HCl] | 6.87 | – | –
CC1(C)C(=O)C=C[C@]2(C)[C@H]3CC[C@@]4(C)[C@H](c5ccoc5)OC(=O)[C@H]5O[C@]54[C@]3(C)C=C[C@@H]12 [7-DESACETOXY-6,7-DEHYDROGEDUNIN] | 7.92 | – | –
O=C1Cc2c([nH]c3ccc([N+](=O)[O-])cc23)-c2ccccc2N1 [Alsterpaullone] | 12.55 | – | –
CC[C@]1(O)C[C@@H]2CN(CCc3c([nH]c4ccccc34)[C@@](C(=O)OC)(c3cc4c(cc3OC)N(C)[C@H]3[C@@](O)(C(=O)OC)[C@H](OC(C)=O)[C@]5(CC)C=CCN6CC[C@]43[C@@H]65)C2)C1 [vinblastine sulfate] | – | – | activation state induced in the screen: M2-activating
OCCN(CCO)c1nc(N2CCCCC2)c2nc(N(CCO)CCO)nc(N3CCCCC3)c2n1 [DIPYRIDAMOLE] | – | −4.41 | Average Z-value [3]: −4.41
COc1cc2c(cc1OC)[C@@H]1C(=O)c3ccc4c(c3O[C@@H]1CO2)C[C@H](C(C)C)O4 [DIHYDROROTENONE] | – | −5.14 | –
CCC[C@H](N[C@@H](C)C(=O)N1[C@H](C(=O)O)C[C@@H]2CCCC[C@@H]21)C(=O)OCC [PERINDOPRIL ERBUMINE] | 7.27 | – | –
CC[C@@H]1/C=C/C=C/C[C@H](C)[C@H](O)[C@](C)(O)C(=O)[C@H](C)[C@@H](O)[C@H](C)C(=O)[C@H](C)[C@@H](O)[C@H](C)/C=C/C(=O)O[C@H]2[C@@H](C)[C@@H](CC1)O[C@@]1(CC[C@@H](C)[C@@H](C[C@H](C)O)O1)[C@@H]2C [oligomycin A] | 7.16 | – | –
CCOc1nc2cccc(C(=O)OC(C)OC(=O)OC3CCCCC3)c2n1Cc1ccc(-c2ccccc2-c2nn[nH]n2)cc1 (stereo not shown) [CANDESARTAN CILEXTIL] | – | −4.32 | –
Cc1onc(-c2ccccc2)c1-c1ccc(S(N)(=O)=O)cc1 [valdecoxib] | 8.60 | – | –
O=C(c1ccc(Nc2nccc(-c3cc4ccccc4s3)n2)cc1)N1CCC(N2CCCC2)CC1 [IKK 16] | – | – | Average Z-value [3]: −4.98
COc1cc2c(c(OC)c1OC)-c1ccc(OC)c(=O)cc1[C@@H](NC(C)=O)CC2 [colchicine] | – | – | activation state induced in the screen: M2-activating
TNFα | – | – | cell shape induced (known M1-/M2-activating stimuli): round shape
COC(=O)Nc1nc2ccc(SC(C)C)cc2[nH]1 [methiazole] | – | – | activation state induced in the screen: M1-activating
O=C1Nc2ccccc2C2=NC(CN3CCN(c4ccccc4)CC3)CN12 (stereo not shown) | – | −9.21 | –
COc1c(C)c2c(c(O)c1C/C=C(\C)CCC(=O)O)C(=O)OC2 [Mycophenolic acid] | – | −4.54 | –
